Experiments:
[1] = system: action of arachidonic acid; assay: Influence on the action of arachidonic acid in vivo under anesthesia (Lefort and Vargaftig); parameters: species or system guinea pig; key: -: no action; (+): weak; +: medium; ++: strong; +++: very strong
Procedure: The values of Table 2 showing the influence on the action of arachidonic acid were determined in guinea pigs under anesthesia using the Lefort and Vargaftig method (Br. J. Pharmac. 63, 35 (1978)).
Influence on the action of arachidonic acid (arachidonic acid
500 g/kg i.v.) in vivo in guinea pigs under anesthesia

[2] = system: thrombocyte aggregation induced by arachidonic acid; assay: Inhibition of thrombocyte aggregation in vitro (Born), arachidonic acid; assay type: cell-based; conditions: induced by 0.36 mM of arachidonic acid
Procedure: (§1) The values of tables 3 to 5 showing the inhibition of the thrombocytic aggregation were determined in vitro according to the Born method (J. Physiol. 162 67 P (1962)) using arachidonic acid, thrombin or adenosine diphosphate as aggregation agent.
Inhibition of thrombocyte aggregation in vitro (according to BORN)
induced by 0.36 mM of arachidonic acid

[3] = system: experimental thrombosis, venous; assay: Venous thrombotic protection, experimental thrombosis in vivo (Harbauer)
Procedure: (§2) The values of the arterial thrombotic protection given in table 1 were determined in rats according to the method of Meng and Seuter (Naunyn-Schmiedeberg's Arch. Pharmacol. 301, 115 (1977)), those of the venous thrombotic protection were determined in rabbits according to the Harbauer method ("Versuche zur Entwicklung eines standardisierten venosen Thrombosemodells am Kaninchen" ("Tests for developing a standardized venous thrombotic model in rabbits"), 17th Angiologic Symposium, Kitzbuhel (1982)).
(§3) Influence on the experimental thrombosis in vivo

[4] = system: experimental thrombosis, arterial; assay: Arterial thrombotic protection, experimental thrombosis in vivo (Meng and Seuter)
Procedure: as §2, §3

[5] = system: thrombocyte aggregation induced by ADP; assay: Inhibition of thrombocyte aggregation in vitro (Born), ADP; assay type: cell-based; conditions: induced by 10 μM ADP
Procedure: as §1
Inhibition of thrombocyte aggregation in vitro (according to
BORN) induced by 10 μM ADP

[6] = system: thrombocyte aggregation induced by thrombin; assay: Inhibition of thrombocyte aggregation in vitro (Born), thrombin; assay type: cell-based; conditions: induced by 0.2-0.4 N.I.H. units/ml (thrombin)
Procedure: as §1
Inhibition of thrombocyte aggregation in vitro
(according to BORN) induced by 0.2-0.4 N.I.H. units/ml

Row | Structure (SMILES) | PGI2 Effect: Lowering of blood pressure ([1]; 1-10 mg/kg i.v.) | TXA2 Effect: Bronchospasm ([1]; 1-10 mg/kg i.v.) | TXA2 Effect: Thrombocytopenia ([1]; 1-10 mg/kg i.v.) | other results
1 | COc1ccc(C2=NNC(=O)CC2COC(=O)COc2ccc(Cl)cc2)cc1OC (centres unmarked) [drawing 71] | + | (+) | - | 
2 | O=C1CC(CO)C(c2ccccc2)=NN1 (centres unmarked) [drawing 75] |  |  |  | IC50 [2]: 5 µM
3 | O=C1CC(CO)C(c2ccc(OCCn3ccnc3)cc2)=NN1 (centres unmarked) [drawing 47] |  |  |  | Thrombotic Protection % venous (rabbit) ([3]; 3 mg/kg i.p.): 57%; Thrombotic Protection % venous (rabbit) ([3]; 10 mg/kg i.p.): 86%
4 | O=C1CC(CO)C(c2ccc[nH]2)=NN1 (centres unmarked) [drawing 50] |  |  |  | Thrombotic Protection % arterial (rat) ([4]; 1 mg/kg i.p.): 42%
5 | O=C1CC(CO)C(c2cccc([N+](=O)[O-])c2)=NN1 (centres unmarked) [drawing 57] | (+ ) | ++ | + | 
6 | O=C1CC(CO)C(c2ccc(Cl)cc2)=NN1 (centres unmarked) [drawing 56] | (+) | (+) | (+) | 
7 | CC(=O)Nc1ccc(C2=NNC(=O)CC2CO)cc1 (centres unmarked) [drawing 65] |  |  |  | PGI2 Effect: Lowering of blood pressure ([1]; 0.1-1 mg/kg i.v.): ++; TXA2 Effect: Bronchospasm ([1]; 0.1-1 mg/kg i.v.): ++; TXA2 Effect: Thrombocytopenia ([1]; 0.1-1 mg/kg i.v.): ++
8 | Cc1ccc(C2=NNC(=O)CC2CO)cc1 (centres unmarked) [drawing 106] |  |  |  | IC50 [5]: 150 µM
9 | COc1ccc(C2=NNC(=O)CC2CO)cc1OC (centres unmarked) [drawing 101] |  |  |  | IC50 [6]: 2 µM
10 | N#Cc1ccc(C2=NNC(=O)CC2CO)cc1 (centres unmarked) [drawing 81] |  |  |  | IC50 [2]: 0.3 µM
11 | CC(=O)Nc1ccc(C2=NNC(=O)CC2CO)cc1 (centres unmarked) [drawing 100] |  |  |  | IC50 [6]: 0.7 µM
12 | O=C1CC(CO)C(c2ccc(Cl)cc2)=NN1 (centres unmarked) [drawing 99] |  |  |  | IC50 [6]: 6 µM
13 | O=C1CC(CO)C(c2ccc(N3CCCC3=O)cc2)=NN1 (centres unmarked) [drawing 48] |  |  |  | Thrombotic Protection % venous (rabbit) ([3]; 10 mg/kg i.p.): 83%
14 | Cc1ccc(C2=NNC(=O)CC2CO)cc1 (centres unmarked) [drawing 54] | (+) | (+) | (+) | 
15 | COc1ccc(C2=NNC(=O)CC2COC(=O)c2cccnc2)cc1OC (centres unmarked) [drawing 59] | - | (+) | (+) | 
16 | Cc1nnc(COc2ccc(C3=NNC(=O)CC3CO)cc2)o1 (centres unmarked) [drawing 79] |  |  |  | IC50 [2]: 1 µM
17 | O=C1CC(CO)C(c2ccc(OCCn3ccnc3)cc2)=NN1 (centres unmarked) [drawing 112] |  |  |  | IC50 [5]: 150 µM
18 | COc1ccc(C2=NNC(=O)CC2CO)cc1 (centres unmarked) [drawing 55] | ++ | (+) | - | 
19 | Cc1cc(COc2ccc(C3=NN(C)C(=O)CC3CO)cc2)[nH]c(=O)c1 (centres unmarked) |  |  |  | IC50 [2]: 15 µM
20 | O=C1CC(CO)C(c2ccccc2)=NN1 (centres unmarked) [drawing 53] | (+) | (+) | - | 
21 | O=C1CC(CO)C(c2ccc(Cl)cc2)=NN1 (centres unmarked) [drawing 108] |  |  |  | IC50 [5]: 70 µM
22 | O=C1CC(CO)C(c2ccc(OCc3cccnc3)cc2)=NN1 (centres unmarked) [drawing 73] | - | + | + | 
23 | COc1ccc(C2=NNC(=O)CC2COC(=O)c2cccnc2)cc1OC (centres unmarked) [drawing 94] |  |  |  | IC50 [2]: 30 µM
24 | CC(=O)Nc1ccc(C2=NN(C)C(=O)CC2CO)cc1 (centres unmarked) [drawing 61] | (+) | (+) | (+) | 
25 | COc1ccc(C2=NNC(=O)CC2COC(=O)COc2ccc(Cl)cc2)cc1OC (centres unmarked) [drawing 83] |  |  |  | IC50 [2]: 4 µM
26 | COc1cc(C2=NNC(=O)CC2CO)cc(OC)c1OC (centres unmarked) |  |  |  | IC50 [2]: 6 µM
27 | CC(=O)Nc1ccc(C2=NNC(=O)CC2CO)cc1 (centres unmarked) [drawing 46] |  |  |  | Thrombotic Protection % arterial (rat) ([4]; 0.3 mg/kg i.p.): 30%; Thrombotic Protection % arterial (rat) ([4]; 1 mg/kg i.p.): 80%; Thrombotic Protection % venous (rabbit) ([3]; 0.3 mg/kg i.p.): 60%; Thrombotic Protection % venous (rabbit) ([3]; 1 mg/kg i.p.): 78%
28 | COc1ccc(C2=NNC(=O)CC2CO)cc1 (centres unmarked) [drawing 98] |  |  |  | IC50 [6]: 2.5 µM
29 | O=C1CC(CO)C(c2ccc(Cl)cc2)=NN1 (centres unmarked) [drawing 44] |  |  |  | Thrombotic Protection % venous (rabbit) ([3]; 10 mg/kg i.p.): 57%
30 | O=C1CC(CO)C(c2c[nH]c3ccccc23)=NN1 (centres unmarked) [drawing 70] | (+) | + | +++ | 
